Experimental data: patent publication US20070259916A1, “mGluR5 modulators II” (AstraZeneca AB, priority 2006, published 2007)
pIC50: −log10 of the molar value.

Legend:
[1] = biological target: T1, human mGluR5d (Homo sapiens, UniProt P41594); assay: FLIPR assay, functional assessment of mGluR5 antagonism (intracellular calcium mobilization); assay type: cell-based; settings: cells expressing human mGluR5d; read-out: FLIPR hmGluR5d
T1 construct: expressed in transfected cells
From the text: Functional Assessment of mGluR5 Antagonism in Cell Lines Expressing mGluR5D
The properties of the compounds of the invention can be analyzed using standard assays for pharmacological activity. Examples of glutamate receptor assays are well known in the art as described in for example Aramori et al., Neuron 8:757 (1992), Tanabe et al., Neuron 8:169 (1992), Miller et al., J. Neuroscience 15: 6103 (1995), Balazs, et al., J. Neurochemistry 69:151 (1997). The methodology described in these publications is incorporated herein by reference. Conveniently, the compounds of the invention can be studied by means of an assay (FLIPR) that measures the mobilization of intracellular calcium, [Ca^2+] in cells expressing mGluR5 or another assay (IP3) that measures inositol phosphate turnover.
Cells expressing human mGluR5d as described in WO97/05252 are seeded at a density of 100,000 cells per well on collagen coated clear bottom 96-well plates with black sides and experiments are done 24 h following seeding. […] The fluorescence signal is sampled 50 times at 1 second intervals followed by 3 samples at 5 second intervals immediately after each of the two additions. Responses are measured as the difference between the peak height of the response to agonist, less the background fluorescence within the sample period. […]

[2] = Determination of brain to plasma ratio in rat; assay type: in vivo; settings: brain and plasma, female Sprague Dawley rats, drug in brain over drug in plasma, read-out: Brain/Plasma Ratio of compound in Rat
Method: Brain to plasma ratios are estimated in female Sprague Dawley rats. The compound is dissolved in water or another appropriate vehicle. For determination of brain to plasma ratio the compound is administrated as a subcutaneous, or an intravenous bolus injection, or an intravenous infusion, or an oral administration. At a predetermined time point after the administration a blood sample is taken with cardiac puncture. The rat is terminated by cutting the heart open, and the brain is immediately retained. The blood samples are collected in heparinized tubes and centrifuged within 30 minutes, in order to separate the plasma from the blood cells. The plasma is transferred to 96-well plates and stored at −20° C. until analysis. The brains are divided in half, and each half is placed in a pre-tarred tube and stored at −20° C. until analysis. Prior to the analysis, the brain samples are thawed and 3 ml/g brain tissue of distilled water is added to the tubes. The brain samples are sonicated in an ice bath until the samples are homogenized. Both brain and plasma samples are precipitated with acetonitrile. After centrifugation, the supernatant is diluted with 0.2% formic acid. […] After reconstitution of the residuals the samples are ready for injection onto the HPLC column.

T1 sequence (P41594 21-942 isoform P41594-3 limits assumed): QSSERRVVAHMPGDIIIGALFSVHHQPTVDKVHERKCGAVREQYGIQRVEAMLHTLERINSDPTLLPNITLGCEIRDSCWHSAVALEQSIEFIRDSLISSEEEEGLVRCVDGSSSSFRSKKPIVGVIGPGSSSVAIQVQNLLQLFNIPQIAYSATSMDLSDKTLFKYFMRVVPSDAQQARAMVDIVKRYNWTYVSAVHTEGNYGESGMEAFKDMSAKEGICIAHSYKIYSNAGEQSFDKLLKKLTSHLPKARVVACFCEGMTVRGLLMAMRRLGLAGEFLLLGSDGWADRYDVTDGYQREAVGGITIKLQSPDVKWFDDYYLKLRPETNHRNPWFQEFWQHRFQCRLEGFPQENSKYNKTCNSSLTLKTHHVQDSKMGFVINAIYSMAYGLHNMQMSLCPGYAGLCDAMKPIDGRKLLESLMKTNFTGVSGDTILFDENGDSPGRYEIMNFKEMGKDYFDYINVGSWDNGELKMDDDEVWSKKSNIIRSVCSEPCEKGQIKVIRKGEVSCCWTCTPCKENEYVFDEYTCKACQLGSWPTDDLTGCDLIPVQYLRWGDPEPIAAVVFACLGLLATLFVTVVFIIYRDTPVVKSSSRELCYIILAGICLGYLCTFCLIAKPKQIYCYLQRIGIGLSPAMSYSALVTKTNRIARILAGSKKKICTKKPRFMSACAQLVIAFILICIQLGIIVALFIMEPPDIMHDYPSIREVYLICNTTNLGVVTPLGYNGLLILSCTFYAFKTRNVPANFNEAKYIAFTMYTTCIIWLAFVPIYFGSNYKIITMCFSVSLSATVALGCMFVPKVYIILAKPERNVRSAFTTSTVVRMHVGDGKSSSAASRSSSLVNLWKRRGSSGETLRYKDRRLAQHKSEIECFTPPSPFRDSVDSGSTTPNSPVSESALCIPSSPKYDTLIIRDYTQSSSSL

Structure (SMILES)	pIC50 [1]	Kp [2]
COc1cc(-c2nnc(N3CCCCC3c3nnn(-c4cccc(C#N)c4)n3)n2C)ccn1 (stereo not shown) [Example 19.11, 3-(5-{1-[5-(2-Methoxy-pyridin-4-yl)-4-methyl-4H-[1,2,4]triazol-3-yl]-piperidin-2-yl}-tetrazol-2-yl)-benzonitrile]	6.96	0.06
Cn1c(-c2cccnc2)nnc1N1CCCC[C@H]1c1nnn(-c2cccc(Cl)c2)n1 [Example 20.2, 3-(5-{(S)-2-[2-(3-Chloro-phenyl)-2H-tetrazol-5-yl]-piperidin-1-yl}-4-methyl-4H-[1,2,4]triazol-3-yl)-pyridine]	6.71	0.085
